A short description of data set [1]: in vitro. As to conditions: human, liver microsomes. A general note: Liver microsomes are a subcellular fraction often used to study metabolism.
A short description of data set [2]: in vitro. The conditions noted are these: human, liver microsomes. The source holds these as a separate data set.
Data set [3] can be described thus: in vitro. As to conditions: mouse, liver microsomes.
Data set [4] can be described thus: in vitro. The conditions noted are these: mouse, liver microsomes. The source holds these as a separate data set.
The nature of data set [5]: in vivo. As to conditions: BALB/c, mouse, iv, 5 mg/kg.
The nature of data set [6]: in vivo. As to conditions: BALB/c, mouse, iv, 5 mg/kg. This is another data set of the same source.
Data set [7] can be described thus: in vivo. As to conditions: BALB/c, mouse, iv, 5 mg/kg. This is another data set of the same source.
A short description of data set [8]: in vivo. As to conditions: BALB/c, mouse, iv, 5 mg/kg. The source holds these as a separate data set.
Data set [9] in a line: in vivo. The conditions noted are these: BALB/c, mouse, iv, 5 mg/kg. This is another data set of the same source.
Data set [10] in a line: in vivo. The conditions noted are these: BALB/c, mouse, po, 25 mg/kg.
A short description of data set [11]: in vivo. The conditions noted are these: BALB/c, mouse, po, 25 mg/kg. The source holds these as a separate data set.
The nature of data set [12]: in vivo. The conditions noted are these: BALB/c, mouse, po, 25 mg/kg. The source holds these as a separate data set.
Data set [13] in a line: in vivo. As to conditions: BALB/c, mouse, po, 25 mg/kg. The source holds these as a separate data set.
Data set [14] is described as follows: in vivo. The conditions noted are these: BALB/c, mouse, po, 25 mg/kg. The source holds these as a separate data set.

Consider `O=C(O)Cc1ccccc1Nc1c(Cl)cccc1Cl` [DICLOFENAC], for which the results for the half-life at 1 h, 1 µM in “in vitro [1]” and in “in vitro [3]” were 0.0883 h and 0.402 h, respectively. Moreover, the CLint scaled (commonly the rate of metabolic loss divided by the concentration) at 1 h, 1 µM in the data set “in vitro [2]” turned out to be 302 mL/min/kg; in “in vitro [4]” it was 226 mL/min/kg.

For `CC(C)(O)CNc1nc(Nc2ccnc(C(F)(F)F)c2)nc(-c2cccc(C(F)(F)F)n2)n1` [ENASIDENIB], the half-life (usually the time in which the quantity being followed falls by half) at 24 h in the data set “in vivo [5]” is 2.71 h. Besides, in “in vivo [6]”, the Cmax (usually the highest concentration seen after dosing) at 24 h was 2840 ng/mL. Besides, the AUC(0-inf) (in general, the area under the concentration-time curve extrapolated to infinity) at 24 h in “in vivo [7]” worked out at 14000 ng·h/mL. Moreover, the mean residence time MRT (as a rule, a mean duration of stay, worked out from the concentration-time curve) at 24 h in the data set “in vivo [8]” worked out at 4.9 h. Further, the clearance – broadly, the volume of plasma or blood freed of the substance per unit of time – at 24 h in the data set “in vivo [9]” came out at 5.99 mL/min/kg. Moreover, in the data set “in vivo [10]”, the half-life at 72 h is 6.98 h. This compound registered a peak concentration (Cmax) at 72 h in the data set “in vivo [11]” of 6390 ng/mL. Further, the AUC(0-inf) at 72 h in the data set “in vivo [12]” came to 87600 ng·h/mL. For the same compound, the mean residence time (MRT) at 72 h in “in vivo [13]” came out at 7.45 h. In the data set “in vivo [14]”, the bioavailability at 72 h worked out at 125%.

Regarding `CCOc1ccc(NC(C)=O)cc1` [PHENACETIN], the half-life at 1 h, 1 µM in the data set “in vitro [1]” is 1.13 h; in the data set “in vitro [3]”, 0.0567 h. The CLint scaled at 1 h, 1 µM in “in vitro [2]” worked out at 23.6 mL/min/kg; in “in vitro [4]”, 1590 mL/min/kg.

These data come from ChEMBL document CHEMBL5365483, “Structure-Based Drug Design of Novel Triaminotriazine Derivatives as Orally Bioavailable IDH2R140Q Inhibitors with High Selectivity and Reduced hERG Inhibitory Activity for the Treatment of Acute Myeloid Leukemia” (J Med Chem, 2023).
